Test results: patent US9150566B2, “2-(1,2,3-triazol-2-yl)benzamide and 3-(1,2,3-triazol-2-YL)picolinamide derivatives as orexin receptor antagonists” (ACTELION PHARMACEUTICALS LTD., priority 2011, dated 2015)
Like-named read-outs stand apart in the source and are kept apart here.

Columns and labels:
[1] = target: human orexin-2 receptor (Homo sapiens (Human), UniProt O43614); test: In vitro intracellular calcium measurements (FLIPR), antagonistic activity on orexin-2 receptor; format: cell-based; settings: read-out: IC50 OX2
Sequence of human orexin-2 receptor (O43614 whole entry): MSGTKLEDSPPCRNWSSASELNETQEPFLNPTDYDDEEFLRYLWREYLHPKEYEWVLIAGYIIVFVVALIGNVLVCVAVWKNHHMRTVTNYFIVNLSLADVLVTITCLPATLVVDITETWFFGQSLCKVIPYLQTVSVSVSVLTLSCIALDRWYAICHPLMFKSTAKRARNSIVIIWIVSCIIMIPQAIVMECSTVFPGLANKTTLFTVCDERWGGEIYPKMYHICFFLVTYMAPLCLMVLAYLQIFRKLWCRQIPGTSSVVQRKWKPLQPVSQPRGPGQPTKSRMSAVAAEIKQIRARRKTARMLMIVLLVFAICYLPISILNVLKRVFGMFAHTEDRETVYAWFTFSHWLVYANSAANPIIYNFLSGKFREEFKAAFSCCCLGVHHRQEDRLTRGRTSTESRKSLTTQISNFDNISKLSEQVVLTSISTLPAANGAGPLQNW
How it was run: (§1)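 CHO cells expressing human orexin-1 or orexin-2 receptor were seeded overnight, preincubated with antagonist for 120 min, then stimulated with agonist in a FLIPR Tetra.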

[2] = target: human orexin-1 receptor (Homo sapiens (Human), UniProt O43613); test: In vitro intracellular calcium measurements (FLIPR), antagonistic activity on orexin-1 receptor; format: cell-based; settings: read-out: IC50 OX1
Sequence of human orexin-1 receptor (O43613 whole entry): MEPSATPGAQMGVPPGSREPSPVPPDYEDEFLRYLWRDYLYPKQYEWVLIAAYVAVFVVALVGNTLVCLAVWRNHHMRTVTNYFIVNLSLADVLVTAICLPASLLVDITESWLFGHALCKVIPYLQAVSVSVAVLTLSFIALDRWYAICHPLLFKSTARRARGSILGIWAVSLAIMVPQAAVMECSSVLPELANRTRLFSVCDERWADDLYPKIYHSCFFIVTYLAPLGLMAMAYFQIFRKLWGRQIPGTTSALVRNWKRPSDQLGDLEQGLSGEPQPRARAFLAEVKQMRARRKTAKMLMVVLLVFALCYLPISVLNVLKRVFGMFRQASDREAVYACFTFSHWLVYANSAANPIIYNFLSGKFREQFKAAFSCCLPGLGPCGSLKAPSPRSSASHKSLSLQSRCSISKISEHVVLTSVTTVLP
How it was run: as §1

[3] = target: CYP3A4 (Homo sapiens (Human), UniProt P08684); test: CYP3A4 inhibition assay (human liver microsomes, testosterone 6β-hydroxylation); settings: read-out: CYP3A4 IC50, 40 μM testosterone
Sequence of CYP3A4 (P08684 whole entry): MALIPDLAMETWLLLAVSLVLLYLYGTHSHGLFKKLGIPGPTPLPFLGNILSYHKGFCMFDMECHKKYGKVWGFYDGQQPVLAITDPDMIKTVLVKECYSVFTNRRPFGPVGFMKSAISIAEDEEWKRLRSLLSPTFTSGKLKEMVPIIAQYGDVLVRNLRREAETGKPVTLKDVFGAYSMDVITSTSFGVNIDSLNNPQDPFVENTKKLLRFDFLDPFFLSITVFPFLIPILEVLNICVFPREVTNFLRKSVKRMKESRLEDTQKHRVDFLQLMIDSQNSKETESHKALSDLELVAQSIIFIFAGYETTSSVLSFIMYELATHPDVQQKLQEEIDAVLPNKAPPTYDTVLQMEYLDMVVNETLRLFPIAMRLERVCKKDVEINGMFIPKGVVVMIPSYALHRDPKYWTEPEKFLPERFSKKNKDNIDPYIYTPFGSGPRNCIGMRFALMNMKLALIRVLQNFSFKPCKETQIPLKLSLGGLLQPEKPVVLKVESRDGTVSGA

[4] = CHO cells expressing human orexin-2 receptor, FLIPR, 3 nM orexin-A agonist, 120 min antagonist incubation, geometric mean if determined several times
[5] = CHO cells expressing human orexin-1 receptor, FLIPR, 3 nM orexin-A agonist, 120 min antagonist incubation, geometric mean if determined several times

Compound | IC50 [1, 4] | IC50 [2, 5] | IC50 [3] | IC50 [2] | IC50 [1]
Cc1ccc(-n2nccn2)c(C(=O)N2CCOC[C@H]2Cc2cccc(-c3ccncc3)c2)c1 [Example 28, (5-Methyl-2-[1,2,3]triazol-2-yl-phenyl)-[(R)-3-(3-pyridin-4-yl-benzyl)-morpholin-4-yl]-methanone] | 2110 nM | 43 nM | 300 nM | – | –
Cc1ccc(C(=O)N2CCOC[C@H]2Cc2cc(Cl)cc(-n3nccn3)c2)c(-n2nccn2)c1 [Example 105, [(R)-3-(3-Chloro-5-[1,2,3]triazol-2-yl-benzyl)-morpholin-4-yl]-(4-methyl-2-[1,2,3]triazol-2-yl-phenyl)-methanone] | 101 nM | – | 21000 nM | 2 nM | –
C[C@@H]1CN(C(=O)c2ccc(Cl)cc2-n2nccn2)[C@H](Cc2cccc(-n3nccn3)c2)CO1 [Example 185, (4-Chloro-2-[1,2,3]triazol-2-yl-phenyl)-[(2R,5R)-2-methyl-5-(3-[1,2,3]triazol-2-yl-benzyl)-morpholin-4-yl]-methanone] | 39 nM | 2 nM | 20000 nM | – | –
CC[C@@H]1CN(C(=O)c2cc(C)ccc2-n2nccn2)[C@H](Cc2cccc(-n3nccn3)c2)CO1 [Example 142, [(2R,5R)-2-Ethyl-5-(3-[1,2,3]triazol-2-yl-benzyl)-morpholin-4-yl]-(5-methyl-2-[1,2,3]triazol-2-yl-phenyl)-methanone] | 287 nM | 5 nM | 9200 nM | – | –
Cc1ccc(-n2nccn2)c(C(=O)N2CCC[C@H]2Cc2cccc(-n3nccn3)c2)c1 [Ref. 2] | 8 nM | 0.5 nM | 3300 nM | – | –
Cc1ccc(-n2nccn2)c(C(=O)N2CCOC[C@H]2Cc2cccc(-n3cccn3)c2)c1 [Example 19, (5-Methyl-2-[1,2,3]triazol-2-yl-phenyl)-[(R)-3-(3-pyrazol-1-yl-benzyl)-morpholin-4-yl]-methanone] | 369 nM | 2 nM | 32000 nM | – | –
O=C(c1ccc(Cl)cc1-n1nccn1)N1CCOC[C@H]1Cc1cc(-n2nccn2)ccc1Cl [Example 170, [(R)-3-(2-Chloro-5-[1,2,3]triazol-2-yl-benzyl)-morpholin-4-yl]-(4-chloro-2-[1,2,3]triazol-2-yl-phenyl)-methanone] | 451 nM | 7 nM | 9800 nM | – | –
Cc1ccc(C[C@@H]2COCCN2C(=O)c2ccccc2-n2nccn2)cc1-c1ncccn1 [Example 192, [(R)-3-(4-Methyl-3-pyrimidin-2-yl-benzyl)-morpholin-4-yl]-(2-[1,2,3]triazol-2-yl-phenyl)-methanone] | 2610 nM | 16 nM | > 50000 nM | – | –
Cc1ccc(C(=O)N2C[C@@H](C)OC[C@H]2Cc2cccc(-c3ncccn3)c2)c(-n2nccn2)c1 [Example 110, [(2R,5R)-2-Methyl-5-(3-pyrimidin-2-yl-benzyl)-morpholin-4-yl]-(4-methyl-2-[1,2,3]triazol-2-yl-phenyl)-methanone] | 176 nM | 2 nM | > 50000 nM | – | –
Cc1ccc(-n2nccn2)c(C(=O)N2CCOC[C@H]2Cc2cccc(-c3cccnn3)c2)c1 [Example 47, (5-Methyl-2-[1,2,3]triazol-2-yl-phenyl)-[(R)-3-(3-pyridazin-3-yl-benzyl)-morpholin-4-yl]-methanone] | 2380 nM | 13 nM | 6000 nM | – | –
CC[C@@H]1CN(C(=O)c2ccccc2-n2nccn2)[C@H](Cc2cccc(-n3nccn3)c2)CO1 [Example 143, [(2R,5R)-2-Ethyl-5-(3-[1,2,3]triazol-2-yl-benzyl)-morpholin-4-yl]-(2-[1,2,3]triazol-2-yl-phenyl)-methanone] | 485 nM | 19 nM | 9100 nM | – | –
Cc1ccc(C(=O)N2CCOC[C@H]2Cc2cccc(-n3nccn3)c2F)c(-n2nccn2)c1 [Example 183, [(R)-3-(2-Fluoro-3-[1,2,3]triazol-2-yl-benzyl)-morpholin-4-yl]-(4-methyl-2-[1,2,3]triazol-2-yl-phenyl)-methanone] | – | – | > 50000 nM | 15 nM | 2130 nM
COc1cc(C(=O)N2CCOC[C@H]2Cc2cc(-n3nccn3)ccc2F)c(-n2nccn2)cc1Cl [Example 139, (4-Chloro-5-methoxy-2-[1,2,3]triazol-2-yl-phenyl)-[(R)-3-(2-fluoro-5-[1,2,3]triazol-2-yl-benzyl)-morpholin-4-yl]-methanone] | 191 nM | 10 nM | 13000 nM | – | –
COc1ccc(C[C@@H]2COCCN2C(=O)c2ccccc2-n2nccn2)cc1-c1cccnc1 [Example 4, [(R)-3-(4-Methoxy-3-pyridin-3-yl-benzyl)-morpholin-4-yl]-(2-[1,2,3]triazol-2-yl-phenyl)-methanone] | 1880 nM | 6 nM | 1200 nM | – | –
Cc1cc(C)c(-n2nccn2)c(C(=O)N2CCOC[C@H]2Cc2cccc(-n3nccn3)c2)c1 [Example 75, (3,5-Dimethyl-2-[1,2,3]triazol-2-yl-phenyl)-[(R)-3-(3-[1,2,3]triazol-2-yl-benzyl)-morpholin-4-yl]-methanone] | 547 nM | 3 nM | 15000 nM | – | –
Cc1ccc(C(=O)N2C[C@@H](C)OC[C@H]2Cc2cccc(-n3nccn3)c2)c(-n2nccn2)c1C [Example 99, (3,4-Dimethyl-2-[1,2,3]triazol-2-yl-phenyl)-[(2R,5R)-2-methyl-5-(3-[1,2,3]triazol-2-yl-benzyl)-morpholin-4-yl]-methanone] | 1220 nM | 5 nM | 9600 nM | – | –
COc1ccc(C[C@@H]2COCCN2C(=O)c2ccccc2-n2nccn2)cc1-c1ncon1 [Example 59, [(R)-3-(4-Methoxy-3-[1,2,4]oxadiazol-3-yl-benzyl)-morpholin-4-yl]-(2-[1,2,3]triazol-2-yl-phenyl)-methanone] | 80 nM | 1 nM | 32000 nM | – | –
Cc1ccc(-n2nccn2)c(C(=O)N2CCOC[C@H]2Cc2cc(-n3nccn3)ccc2C)c1 [Example 119, [(R)-3-(2-Methyl-5-[1,2,3]triazol-2-yl-benzyl)-morpholin-4-yl]-(5-methyl-2-[1,2,3]triazol-2-yl-phenyl)-methanone] | 593 nM | 6 nM | 19000 nM | – | –
COc1ccc(-n2nccn2)c(C(=O)N2CCOC[C@H]2Cc2cccc(-c3ncccn3)c2)c1 [Example 50, (5-Methoxy-2-[1,2,3]triazol-2-yl-phenyl)-[(R)-3-(3-pyrimidin-2-yl-benzyl)-morpholin-4-yl]-methanone] | 942 nM | 2 nM | > 50000 nM | – | –
Cc1ccc(-n2nccn2)c(C(=O)N2CCOC[C@H]2Cc2cccc(-c3nccc(C)n3)c2)c1 [Example 39, {(R)-3-[3-(4-Methyl-pyrimidin-2-yl)-benzyl]-morpholin-4-yl}-(5-methyl-2-[1,2,3]triazol-2-yl-phenyl)-methanone] | 231 nM | 5 nM | 18000 nM | – | –
Cc1ccc(-n2nccn2)c(C(=O)N2CCOC[C@H]2Cc2cc(-n3nccn3)ccc2F)c1 [Example 56, [(R)-3-(2-Fluoro-5-[1,2,3]triazol-2-yl-benzyl)-morpholin-4-yl]-(5-methyl-2-[1,2,3]triazol-2-yl-phenyl)-methanone] | 837 nM | 4 nM | 33000 nM | – | –
O=C(c1ccccc1-n1nccn1)N1CCOC[C@H]1Cc1cccc(-c2ncon2)c1 [Example 1, [(R)-3-(3-[1,2,4]Oxadiazol-3-yl-benzyl)-morpholin-4-yl]-(2-[1,2,3]triazol-2-yl-phenyl)-methanone] | 803 nM | 40 nM | > 50000 nM | – | –
Cc1ccc(C(=O)N2C[C@@H](C)OC[C@H]2Cc2cc(-n3ccnn3)ccc2F)c(-n2nccn2)c1 [Example 141, [(2R,5R)-5-(2-Fluoro-5-[1,2,3]triazol-1-yl-benzyl)-2-methyl-morpholin-4-yl]-(4-methyl-2-[1,2,3]triazol-2-yl-phenyl)-methanone] | 429 nM | 16 nM | 19000 nM | – | –
Cc1cccc(C(=O)N2CCOC[C@H]2Cc2cc(Cl)cc(-n3nccn3)c2)c1-n1nccn1 [Example 106, [(R)-3-(3-Chloro-5-[1,2,3]triazol-2-yl-benzyl)-morpholin-4-yl]-(3-methyl-2-[1,2,3]triazol-2-yl-phenyl)-methanone] | 335 nM | 3 nM | 14000 nM | – | –
C[C@@H]1CN(C(=O)c2ccc(Cl)cc2-n2nccn2)[C@H](Cc2cc(-n3nccn3)ccc2F)CO1 [Example 187, (4-Chloro-2-[1,2,3]triazol-2-yl-phenyl)-[(2R,5R)-5-(2-fluoro-5-[1,2,3]triazol-2-yl-benzyl)-2-methyl-morpholin-4-yl]-methanone] | 58 nM | 6 nM | 14000 nM | – | –
O=C(c1ccccc1-n1nccn1)N1CCOC[C@H]1Cc1cccc(-c2ncccn2)c1 [Example 18, [(R)-3-(3-Pyrimidin-2-yl-benzyl)-morpholin-4-yl]-(2-[1,2,3]triazol-2-yl-phenyl)-methanone] | 1890 nM | 22 nM | 39000 nM | – | –
C[C@@H]1CN(C(=O)c2cccc(Cl)c2-n2nccn2)[C@H](Cc2cc(-n3nccn3)ccc2F)CO1 [Example 173, (3-Chloro-2-[1,2,3]triazol-2-yl-phenyl)-[(2R,5R)-5-(2-fluoro-5-[1,2,3]triazol-2-yl-benzyl)-2-methyl-morpholin-4-yl]-methanone] | 455 nM | 16 nM | 21000 nM | – | –
O=C(c1ccccc1-n1nccn1)N1CCOC[C@H]1Cc1ccc(Cl)c(-c2ncon2)c1 [Example 90, [(R)-3-(4-Chloro-3-[1,2,4]oxadiazol-3-yl-benzyl)-morpholin-4-yl]-(2-[1,2,3]triazol-2-yl-phenyl)-methanone] | 475 nM | 12 nM | 21000 nM | – | –
